Laboratory results from patent US20110021776A1, “COMPOSITIONS FOR THE TREATMENT OF CENTRAL NERVOUS SYSTEM DISEASES AND DISORDERS” (MediProPharma, Inc., priority 2006, published 2011).
Values joined by “and” are separate entries in the source; they are usually repeats but may differ in a detail not shown here. Equal entries are not always repeated. Where two headings read alike, the source gives them in different places. Marks after values point to notes of the source that are not given here. Blank lines part the entries; values can stand above or below the compound they belong to.

What was measured:
human DYRK1A [1] = molecular target: T1, human DYRK1A (Homo sapiens, UniProt Q13627); test: Human DYRK1A kinase functional assay (CEREP, LANCE detection); format: biochemical; design: CEREP (France), contract assay provider
Protocol: (II) Human DYRK1A Kinase Functional Assay and IC50 Measurements.
Compound profiling in a human DYRK1A kinase functional assay was performed by CEREP (France). The effects of compounds on the activity of human DYRK1A were evaluated and quantified by measuring the phosphorylation of the substrate Ulight-CFFKNIVTPRTPPPSQGK-amide (MBP) using a human recombinant enzyme and the LANCE® detection method, as described by Himpel et al, J. Biol. Chem., 275: 2431 (2000). The inhibitory activity of the compounds was expressed as a percent inhibition of the control kinase activity. Activities of the compounds at 50% or higher inhibition were selected for IC50 determination. Compounds were tested at 6 concentrations in duplicate for IC50 determination. The standard inhibitory reference compound was staurosporine, which was tested in each experiment at 8 concentrations to obtain an inhibition curve from which its IC50 value was calculated.
In certain embodiments, compounds have a low IC50 value in the DYRK1A kinase functional assay. […] The human DYRK1A kinase functional assay has been used to test the compounds of the Examples disclosed.

[2] = Plasma pharmacokinetics, single dose in rats; format: in vivo, Sprague-Dawley rats; details: normal rats; for MRT inf: read-out: MRT0-inf; for MRT last: read-out: MRT0-last; for Vd: read-out: Vdss
Protocol: (§1) (IV) Pharmacokinetic Studies
(§2) The pharmacokinetic studies in Sprague-Dawley rats were performed using the protocols developed by WuXi AppTec (St. Paul, Minn., USA, and Shanghai, China. http://www.apptecls.com/).

[3] = Brain/plasma pharmacokinetics, single i.v. bolus in rats; format: in vivo, Sprague-Dawley rats; details: 10 mg/kg bolus i.v., normal rats; for Kp / concentration at 0.25 h / concentration at 1 h / concentration at 4 h: intravenous; for Kp: read-out: BAUC/PAUC Ratio; for AUC(0-t): read-out: AUC0-t of Plasma
Protocol: as §1, §2
The brain exposure of the compound of Example 1 is about […] higher than that required for inhibition of DYRK1A, with a Kd and IC50 at about 1 uM, or 280 ng/mL.

human DYRK1A [4] = molecular target: T1, human DYRK1A; test: Human DYRK1A kinase competitive binding assay (Ambit Biosciences); design: Ambit Biosciences (San Diego, Calif., USA), contract assay provider
Protocol: (I) Human DYRK1A Kinase Binding Assay and Binding Constant Measurements. Human DYRK1A kinase profiles in a competitive binding assay were performed by Ambit Biosciences (San Diego, Calif., USA). Activity was recorded via a competition binding assay of human DYRK1A kinase that was fused to a proprietary tag. Measurements of the amount of DYRK1A kinase bound to an immobilized, active-site directed ligand in the presence and absence of the test compound provided a percentage of DMSO control for binding of ligand. Activities between 1% and 10% were selected for Kd determination. Dendrogram representations were generated by an in-house visualization tool designated as PhyloChem. In certain embodiments, compounds have a low Kd value in the DYRK1A kinase binding assay. […] The human DYRK1A kinase binding assay has been used to test the compounds of the Examples disclosed.

[5] = Sprague-Dawley, rat, iv, i.v. 2 mg/kg, plasma
[6] = Sprague-Dawley, rat, iv, i.v. 10 mg/kg, plasma
[7] = Sprague-Dawley, rat, plasma, iv, i.v. 2 mg/kg
[8] = Sprague-Dawley, rat, plasma, iv, i.v. 10 mg/kg
[9] = Sprague-Dawley, rat, po, p.o. 10 mg/kg, plasma

Compound: Cc1nc2c(c3c1[nH]c1ccccc13)C(=O)CC(C)(C)C2 [Example 1, 3,3,6-trimethyl-2,3,4,7-tetrahydroindolo[2,3-c]quinolin-1-one]
- AUC(0-inf) [2, 5]: 316 ng·h/mL
- AUC(0-t) [2, 5]: 312 ng·h/mL
- half-life [2, 5]: 22.2 min
- MRT inf [2, 5]: 21.9 min
- MRT last [2, 5]: 19.9 min
- AUC(0-inf) [2, 6]: 2350 ng·h/mL
- AUC(0-t) [2, 6]: 2280 ng·h/mL
- half-life [2, 6]: 45.9 min
- MRT inf [2, 6]: 53.6 min
- MRT last [2, 6]: 46.4 min
- clearance [2, 7]: 106 mL/min/kg
- Vd [2, 7]: 2.31 L/kg
- clearance [2, 8]: 71.1 mL/min/kg
- Vd [2, 8]: 3.81 L/kg
- bioavailability ([2]; Sprague-Dawley, rat, plasma, po, p.o. 10 mg/kg, calculated using AUC0-inf, read-out: F (absolute oral bioavailability)): 34%
- AUC(0-inf) [2, 9]: 544 ng·h/mL
- AUC(0-t) [2, 9]: 541 ng·h/mL
- Cmax [2, 9]: 1860 ng/mL
- Tmax [2, 9]: 15 min
- half-life [2, 9]: 49.3 min
- MRT inf [2, 9]: 39.3 min
- MRT last [2, 9]: 36.6 min
- AUCExtra ([2]; i.v. 2 mg/kg, plasma): 1.49%
- Co ([2]; i.v. 2 mg/kg, plasma): 1665 ng/mL
- CL0-last ([2]; i.v. 10 mg/kg): 73.1 mL/min/kg
- Vdss0-last ([2]; i.v. 10 mg/kg): 3.39 L/kg
- Co ([2]; i.v. 10 mg/kg, plasma): 4100 ng/mL
- AUCExtra ([2]; p.o. 10 mg/kg, plasma): 0.672%
- AUC0-t of Brain ([3]; t = 0.25 h): 2409 ng·h/g
- AUC0-t of Brain ([3]; t = 1 h): 4727 ng·h/g
- AUC0-t of Brain ([3]; t = 4 h): 5924 ng·h/g
- AUC0-t of Brain ([3]; t = 8 h, the data is the value of AUC(inf)): 6020^b ng · h/g
- AUC0-t of Brain ([3]; t = 24 h, the data is the value of AUC(inf)): 6020^b ng · h/g
- Kp ([3]; Sprague-Dawley, rat, brain and plasma, 10 mg/kg, t = 0.25 h, BrainAUC(0-t)/PlasmaAUC(0-t)): 3.04
- Kp ([3]; Sprague-Dawley, rat, brain and plasma, 10 mg/kg, t = 1 h, BrainAUC(0-t)/PlasmaAUC(0-t)): 2.81
- Kp at 0.25 h ([3]; Sprague-Dawley, rat, brain and plasma, iv, 10 mg/kg, time 0.25 h, read-out: Brain/Plasma Ratio): 2.89
- Kp at 1 h ([3]; Sprague-Dawley, rat, brain and plasma, iv, 10 mg/kg, time 1 h, read-out: Brain/Plasma Ratio): 2.17
- Kp ([3]; Sprague-Dawley, rat, brain, 10 mg/kg, t = 4 h, BrainAUC(0-t)/PlasmaAUC(0-t)): 2.6
- Kp ([3]; Sprague-Dawley, rat, brain, 10 mg/kg, t = 8 h): 2.56
- Kp ([3]; Sprague-Dawley, rat, brain, 10 mg/kg, t = 24 h): 2.56
- concentration at 0.25 h ([3]; Sprague-Dawley, rat, brain, time 0.25 h, read-out: Mean concentration in brain): 6900 ng/mL
- concentration at 1 h ([3]; Sprague-Dawley, rat, brain, time 1 h, read-out: Mean concentration in brain): 1030 ng/mL
- concentration at 4 h ([3]; Sprague-Dawley, rat, brain, time 4 h, read-out: Mean concentration in brain): 99.4 ng/mL
- Kp at 4 h ([3]; Sprague-Dawley, rat, brain, iv, 10 mg/kg, time 4 h, read-out: Brain/Plasma Ratio): 1.69
- concentration at 0.25 h ([3]; Sprague-Dawley, rat, plasma, time 0.25 h, read-out: Mean concentration in plasma): 2390 ng/mL
- concentration at 1 h ([3]; Sprague-Dawley, rat, plasma, time 1 h, read-out: Mean concentration in plasma): 476 ng/mL
- concentration at 4 h ([3]; Sprague-Dawley, rat, plasma, time 4 h, read-out: Mean concentration in plasma): 58.7 ng/mL
- AUC(0-t) ([3]; Sprague-Dawley, rat, plasma, iv, 10 mg/kg, t = 0.25 h): 792 ng·h/mL
- AUC(0-t) ([3]; Sprague-Dawley, rat, plasma, iv, 10 mg/kg, t = 1 h): 1680 ng·h/mL
- AUC(0-t) ([3]; Sprague-Dawley, rat, plasma, iv, 10 mg/kg, t = 4 h): 2280 ng·h/mL
- AUC(0-t) ([3]; Sprague-Dawley, rat, plasma, iv, 10 mg/kg, t = 8 h, the data is the value of AUC(inf)): 2350 ng·h/mL
- AUC(0-t) ([3]; Sprague-Dawley, rat, plasma, iv, 10 mg/kg, t = 24 h, the data is the value of AUC(inf)): 2350 ng·h/mL
- melting point: 178.3 to 180.7 °C
- IC50 (human DYRK1A [1]): < 2 µM and ~1 µM
- Kd (human DYRK1A [4]): < 10000 nM and < 1000 nM and ~1000 nM

Compound: COc1ccc2[nH]c3c(C)nc4c(c3c2c1)C(=O)CC(C)(C)C4 [Example 6, 10-methoxy-3,3,6-trimethyl-2,3,4,7-tetrahydroindolo[2,3-c]quinolin-1-one]
- Kd (human DYRK1A [4]): < 5000 nM

Compound: COc1ccc2[nH]c3cnc4c(c3c2c1)C(=O)CC(C)(C)C4 [Example 14, 10-methoxy-3,3-dimethyl-2,3,4,7-tetrahydroindolo[2,3-c]quinolin-1-one]
- IC50 (human DYRK1A [1]): < 10 µM

Compound: Cc1nc2c(c3c1[nH]c1cccc(F)c13)C(=O)CC(C)(C)C2 [Example 2, 11-fluoro-3,3,6-trimethyl-2,3,4,7-tetrahydroindolo[2,3-c]quinolin-1-one]
- IC50 (human DYRK1A [1]): < 5 µM
- Kd (human DYRK1A [4]): < 1000 nM

Compound: Cc1nc2c(c3c1[nH]c1ccccc13)C(=O)CC1(CCCCC1)C2 [Example 12, 6-methyl-3′H-spirocyclohexane-2,3,4,7-tetrahydroindolo[2,3-c]quinolin-1-one]
- IC50 (human DYRK1A [1]): < 10 µM

Other lines, results leading:

- IC50 (human DYRK1A [1]): < 2 µM
Compound: CCc1nc2c(c3c1[nH]c1ccc(F)cc13)C(=O)CC(C)(C)C2 [Example 16, 10-fluoro-6-ethyl-3,3,-dimethyl-2,3,4,7-tetrahydroindolo[2,3-c]quinolin-1-one]

- IC50 (human DYRK1A [1]): < 2 µM
- Kd (human DYRK1A [4]): < 1000 nM
Compound: Cc1nc2c(c3c1[nH]c1ccc(F)cc13)C(=O)CC(C)(C)C2 [Example 4, 10-fluoro-3,3,6-trimethyl-2,3,4,7-tetrahydroindolo[2,3-c]quinolin-1-one]

- IC50 (human DYRK1A [1]): < 5 µM
Compound: CCc1nc2c(c3c1[nH]c1ccccc13)C(=O)CC(C)(C)C2 [Example 10, 6-ethyl-3,3-dimethyl-2,3,4,7-tetrahydro-indolo[2,3-c]quinolin-1-one]

- IC50 (human DYRK1A [1]): < 5 µM
Compound: CCc1nc2c(c3c1[nH]c1cccc(F)c13)C(=O)CC(C)(C)C2 [Example 15, 11-fluoro-6-ethyl-3,3,-dimethyl-2,3,4,7-tetrahydroindolo[2,3-c]quinolin-1-one]

- IC50 (human DYRK1A [1]): < 5 µM
Compound: CC1(C)CC(=O)c2c(ncc3[nH]c4ccccc4c23)C1 [Example 11, 3,3-dimethyl-2,3,4,7-tetrahydroindolo[2,3-c]quinolin-1-one]

- IC50 (human DYRK1A [1]): < 5 µM
Compound: Cc1nc2c(c3c1[nH]c1ccc(Cl)cc13)C(=O)CC(C)(C)C2 [Example 13, 10-chloro-3,3,6-trimethyl-2,3,4,7-tetrahydroindolo[2,3-c]quinolin-1-one]

- IC50 (human DYRK1A [1]): < 5 µM
Compound: Cc1nc2c(c3c1[nH]c1ccccc13)C(=O)CC(C)C2 (centres unmarked) [Example 8, 3,6-dimethyl-2,3,4,7-tetrahydroindolo[2,3-c]quinolin-1-one]
